Assay results as given in ChEMBL document CHEMBL4000148, “Design of novel dispirooxindolopyrrolidine and dispirooxindolopyrrolothiazole derivatives as potential antitubercular agents” (Bioorg Med Chem Lett, 2015).
Values after ≈ are worked out from the molar mass of the structure shown.

Columns and labels:
[1] = Cytotoxicity against mouse RAW264.7 cells assessed as inhibition of cell viability at 50 uM after 72 hrs by MTT assay relative to control; type: cell-based; settings: read-out: INH
[2] = tested on: Mycobacterium tuberculosis; assay: Antitubercular activity against Mycobacterium tuberculosis H37Rv ATCC 27294 after 28 days by agar dilution method; type: functional; settings: H37Rv ATCC 27294, 672 h
[3] = tested on: Mycobacterium tuberculosis; assay: Potency index, ratio of pyrazinamide MIC to compound MIC for Mycobacterium tuberculosis H37Rv ATCC 27294; type: functional
[4] = tested on: Mycobacterium tuberculosis; assay: Potency index, ratio of ciprofloxacin MIC to compound MIC for Mycobacterium tuberculosis H37Rv ATCC 27294; type: functional

SMILES: O=C1Oc2ccccc2[C@@]12[C@H](c1ccc(Cl)cc1)[C@H]1CSCN1[C@]21C(=O)Nc2ccccc21
- cytotoxicity at 72 h, 50 µM [1]: 32.3%
- MIC [2]: 3.12 mg/L (≈ 6.58 µM)

SMILES: CO[C@H]1/C=C/O[C@@]2(C)Oc3c(C)c(O)c4c(O)c(c(/C=N/N5CCN(C)CC5)c(O)c4c3C2=O)NC(=O)/C(C)=C\C=C\[C@H](C)[C@H](O)[C@@H](C)[C@@H](O)[C@@H](C)[C@H](OC(C)=O)[C@@H]1C [RIFAMPIN]
- MIC [2]: 0.1 mg/L (≈ 0.122 µM)

SMILES: Cc1ccc([C@@H]2[C@H]3CSCN3[C@]3(C(=O)Nc4ccccc43)[C@@]23C(=O)Oc2ccccc23)cc1
- MIC [2]: 12.5 mg/L (≈ 27.5 µM)

SMILES: COc1ccc([C@@H]2CN(C)[C@]3(C(=O)Nc4ccccc43)[C@@]23C(=O)Oc2ccccc23)cc1
- MIC [2]: 12.5 mg/L (≈ 29.3 µM)

SMILES: Cc1ccc([C@@H]2[C@H]3CSCN3[C@]3(C(=O)Nc4ccc(Br)cc43)[C@@]23C(=O)Oc2ccccc23)cc1
- MIC [2]: 12.5 mg/L (≈ 23.4 µM)

SMILES: O=C1Oc2ccccc2[C@@]12[C@H](c1ccccc1)[C@H]1CSCN1[C@]21C(=O)Nc2ccc([N+](=O)[O-])cc21
- cytotoxicity at 72 h, 50 µM [1]: 35.2%
- MIC [2]: 3.12 mg/L (≈ 6.44 µM)

SMILES: CN1C[C@@H](c2ccc([N+](=O)[O-])cc2)[C@]2(C(=O)Oc3ccccc32)[C@@]12C(=O)Nc1ccccc12
- cytotoxicity at 72 h, 50 µM [1]: 29.5%
- MIC [2]: 3.12 mg/L (≈ 7.08 µM)

SMILES: CC[C@@H](CO)NCCN[C@@H](CC)CO [ETHAMBUTOL]
- MIC [2]: 1.56 mg/L (≈ 7.64 µM)

SMILES: COc1ccc([C@@H]2[C@H]3CSCN3[C@]3(C(=O)Nc4ccccc43)[C@@]23C(=O)Oc2ccccc23)cc1
- cytotoxicity at 72 h, 50 µM [1]: 27.5%
- Ratio [3]: 4
- Ratio [4]: 2
- MIC [2]: 1.56 mg/L (≈ 3.32 µM)

SMILES: CSc1ccc([C@@H]2[C@H]3CSCN3[C@]3(C(=O)Nc4ccc([N+](=O)[O-])cc43)[C@@]23C(=O)Oc2ccccc23)cc1
- MIC [2]: 12.5 mg/L (≈ 23.5 µM)

SMILES: O=C1Oc2ccccc2[C@@]12[C@H](c1ccc([N+](=O)[O-])cc1)[C@H]1CSCN1[C@]21C(=O)Nc2ccc([N+](=O)[O-])cc21
- MIC [2]: 50 mg/L (≈ 94.2 µM)

SMILES: CSc1ccc([C@@H]2[C@H]3CSCN3[C@]3(C(=O)Nc4ccccc43)[C@@]23C(=O)Oc2ccccc23)cc1
- MIC [2]: 12.5 mg/L (≈ 25.7 µM)

SMILES: O=C1Oc2ccccc2[C@@]12[C@H](c1ccc(Br)cc1)[C@H]1CSCN1[C@]21C(=O)Nc2ccccc21
- cytotoxicity at 72 h, 50 µM [1]: 28.5%
- MIC [2]: 3.12 mg/L (≈ 6.02 µM)

SMILES: O=C1Oc2ccccc2[C@@]12[C@H](c1ccccc1)[C@H]1CSCN1[C@]21C(=O)Nc2ccc(Br)cc21
- MIC [2]: 25 mg/L (≈ 48.1 µM)

SMILES: O=C1Oc2ccccc2[C@@]12[C@H](c1ccccc1)[C@H]1CSCN1[C@]21C(=O)Nc2ccccc21
- MIC [2]: 25 mg/L (≈ 56.8 µM)

SMILES: CN1C[C@@H](c2ccc(Cl)cc2)[C@]2(C(=O)Oc3ccccc32)[C@@]12C(=O)Nc1ccccc12
- cytotoxicity at 72 h, 50 µM [1]: 30.1%
- MIC [2]: 6.25 mg/L (≈ 14.5 µM)

SMILES: O=C1Oc2ccccc2[C@@]12[C@H](c1ccc(Br)cc1)[C@H]1CSCN1[C@]21C(=O)Nc2ccc([N+](=O)[O-])cc21
- MIC [2]: 12.5 mg/L (≈ 22.1 µM)

SMILES: O=C1Oc2ccccc2[C@@]12[C@H](c1ccc([N+](=O)[O-])cc1)[C@H]1CSCN1[C@]21C(=O)Nc2ccc(Br)cc21
- cytotoxicity at 72 h, 50 µM [1]: 43.1%
- MIC [2]: 3.12 mg/L (≈ 5.54 µM)

SMILES: O=C(O)c1cn(C2CC2)c2cc(N3CCNCC3)c(F)cc2c1=O [CIPROFLOXACIN]
- MIC [2]: 3.13 mg/L (≈ 9.45 µM)

SMILES: Cc1ccc([C@@H]2[C@H]3CSCN3[C@]3(C(=O)Nc4ccc([N+](=O)[O-])cc43)[C@@]23C(=O)Oc2ccccc23)cc1
- MIC [2]: > 25 mg/L

SMILES: COc1ccc([C@@H]2[C@H]3CSCN3[C@]3(C(=O)Nc4ccc(Br)cc43)[C@@]23C(=O)Oc2ccccc23)cc1
- MIC [2]: 50 mg/L (≈ 91 µM)

SMILES: CSc1ccc([C@@H]2CN(C)[C@]3(C(=O)Nc4ccccc43)[C@@]23C(=O)Oc2ccccc23)cc1
- cytotoxicity at 72 h, 50 µM [1]: 28.7%
- MIC [2]: 3.12 mg/L (≈ 7.06 µM)

SMILES: NNC(=O)c1ccncc1 [ISONIAZID]
- MIC [2]: 0.05 mg/L (≈ 0.365 µM)

SMILES: O=C1Oc2ccccc2[C@@]12[C@H](c1ccc(Br)cc1)[C@H]1CSCN1[C@]21C(=O)Nc2ccc(Br)cc21
- cytotoxicity at 72 h, 50 µM [1]: 32.4%
- MIC [2]: 3.12 mg/L (≈ 5.22 µM)

SMILES: CN1C[C@@H](c2ccccc2)[C@]2(C(=O)Oc3ccccc32)[C@@]12C(=O)Nc1ccccc12
- MIC [2]: 12.5 mg/L (≈ 31.5 µM)

SMILES: CSc1ccc([C@@H]2[C@H]3CSCN3[C@]3(C(=O)Nc4ccc(Br)cc43)[C@@]23C(=O)Oc2ccccc23)cc1
- cytotoxicity at 72 h, 50 µM [1]: 28.1%
- MIC [2]: 6.25 mg/L (≈ 11.1 µM)

SMILES: O=C1Oc2ccccc2[C@@]12[C@H](c1ccc([N+](=O)[O-])cc1)[C@H]1CSCN1[C@]21C(=O)Nc2ccccc21
- cytotoxicity at 72 h, 50 µM [1]: 20.7%
- Ratio [3]: 4
- Ratio [4]: 2
- MIC [2]: 1.56 mg/L (≈ 3.21 µM)

SMILES: O=C1Oc2ccccc2[C@@]12[C@H](c1ccc(Cl)cc1)[C@H]1CSCN1[C@]21C(=O)Nc2ccc(Br)cc21
- cytotoxicity at 72 h, 50 µM [1]: 34.6%
- MIC [2]: 3.12 mg/L (≈ 5.64 µM)

SMILES: NC(=O)c1cnccn1 [PYRAZINAMIDE]
- MIC [2]: 6.25 mg/L (≈ 50.8 µM)

SMILES: COc1ccc([C@@H]2[C@H]3CSCN3[C@]3(C(=O)Nc4ccc([N+](=O)[O-])cc43)[C@@]23C(=O)Oc2ccccc23)cc1
- MIC [2]: 25 mg/L (≈ 48.5 µM)
